Results on two compounds are retold here after US6586455B1, “Treatment of liposarcomas using a combination of thiazolidinediones and retinoid X receptor selective agonists” (The Salk Institute for Biological Studies, priority 1996, dated 2003).

The structures appear in SMILES notation.

Holding throughout (assay type): cell-based
One experiment relates to LS857 cells. The experiment can be described thus: Differentiation / lipid accumulation of primary human liposarcoma cells LS857. Conditions: 7 days. As for the experimental part:
(§1) Liposarcomas have presumably acquired one or more genetic defects that interfere with the course of normal adipocyte development. The observation that PPARγ is expressed consistently in these tumors raised the possibility that the malignant cells might be forced to complete the differentiation program by maximally activating the PPARγ pathway. To address this possibility, primary cells isolated from three human liposarcomas were cultured in vitro. Primary cell strains LS857 and LS175 were derived from well differentiated liposarcomas and LS707 was derived from an intermediate grade myxoid/round cell liposarcoma (see Table 3). High grade pleomorphic liposarcoma cells could not be expanded to sufficient numbers to permit studies of differentiation. A primary leiomyosarcoma cell line LM203 was cultured as a control. To confirm that these cultures consisted of malignant tumor-derived cells, cytogenetic analysis was performed.
When cultured in the presence of fetal bovine serum and insulin, conditions permissive for adipocyte differentiation, all three cell lines maintain a fibroblastic morphology. LS175 cells contained small amounts of stainable lipid under these conditions. […] The degree of morphologically recognizable differentiation varied from 40% in the LS857 cells to 75% in the LS175 cells. […] This experiment was performed at least twice with each cell strain with quantitatively and qualitatively similar results.
The ability of LG268 to promote differentiation of human liposarcoma cells was then examined. […] To further characterize the effects of PPARγ and RXR ligands on liposarcoma cells, the expression of adipocyte-specific markers were examined by Northern blotting. LS857 cells, like the tumor from which they were derived, express PPARγ mRNA. Treatment of LS857 cells with pioglitazone leads to the induction of two markers of terminal adipocyte differentiation, the MRNAs encoding aP2 and adipsin. […]

The next experiment deals with NIH-vector cells. The experiment can be described thus: Adipocyte differentiation, oil red O staining, NIH-vector cells. Conditions: 7 days; for % lipid containing cells: range over three experiments. How it is done:
Simultaneous exposure of competent cells to both PPARγ and RXR-specific ligand was investigated to determine if such combination might provide a stronger adipogenic signal than a PPARγ ligand alone. The ability of the. […] It has previously been shown that wild-type NIH-3T3 cells express RXRα, but not PPARγ. NIH-vector and NIH-PPARγ cells were cultured as described in the Examples. […] After an additional four days of culture, cells were fixed and stained with oil red O. Data are presented in Table 1 as the range of morphologically recognizable differentiation observed for each line over three separate experiments.

A further experiment concerns NIH-PPARγ cells. Briefly: Adipocyte differentiation, oil red O staining, NIH-3T3 fibroblasts expressing PPARγ. As to conditions: 7 days; for % lipid containing cells: NIH-PPARγ cells, range over three experiments. How it is done: Simultaneous exposure of competent cells to both PPARγ and RXR-specific ligand was investigated to determine if such combination might provide a stronger adipogenic signal than a PPARγ ligand alone. The ability of the. […] It has previously been shown that wild-type NIH-3T3 cells express RXRα, but not PPARγ. NIH-vector and NIH-PPARγ cells were cultured as described in the Examples.

For another experiment, the system named is LS175 cells. The experiment can be described thus: Differentiation / lipid accumulation of primary human liposarcoma cells LS175. As to conditions: 10 μM, 7 days. As for the experimental part:
as §1
When cultured in the presence of fetal bovine serum and insulin, conditions permissive for adipocyte differentiation, all three cell lines maintain a fibroblastic morphology. LS175 cells contained small amounts of stainable lipid under these conditions. […] The degree of morphologically recognizable differentiation varied from 40% in the LS857 cells to 75% in the LS175 cells. […] […]. […]

With `Cc1cc2c(cc1C1(c3ccc(C(=O)O)cn3)CC1)C(C)(C)CCC2(C)C` [LG268, 6-[1-(8 pentamethyl-5,6,7,8-tetrahydronaphthalen-2-yl)cyclopropyl]nicotinic acid], the “lipid accumulation, oil red O, macroscopic view of culture dishes” value in the experiment on LS857 cells (LS857, 5 μM thiazolidinedione, 50 nM LG268, four more days of culture) is “significant lipid accumulation”. The “adipocyte differentiation (in words)” value in the experiment with LS857 cells (LS857 cells, 50 nM LG268, 10 μM pioglitazone) is listed as “significant degree of adipocyte differentiation”. Also, the “% lipid containing cells” value with NIH-vector cells (50 nM LG268 alone) is reported as 0%; with NIH-PPARγ cells (50 nM LG268 alone), 50-65%. Moreover, the “adipogenic effect (in words)” value in the experiment with NIH-vector cells is “no effect”. Also, the “stimulation of adipocyte differentiation (in words)” value in the experiment with NIH-PPARγ cells (confluent NIH-PPARγ cells, 50 nM LG268, 1 μM pioglitazone) is given as “significant stimulation of adipocyte differentiation”.
Take `CCc1ccc(CCOc2ccc(CC3SC(=O)NC3=O)cc2)nc1` (stereo not shown) [pioglitazone]: the “degree of morphologically recognizable differentiation” value in the experiment with LS857 cells (LS857 cells, 10 μM) was 40%; with LS175 cells, 75%. For the same compound, the “% lipid containing cells” value with NIH-vector cells (1 μM pioglitazone alone) is 0%; with NIH-PPARγ cells (1 μM pioglitazone alone), 60-70%.
